In US20110300628A1, “ENHANCEMENT OF EPIDERMAL CELL GROWTH BY NON-PROTEIN GROWTH FACTORS” (priority 2010, published 2011):

Experiments:
[1] = test system: normal human keratinocytes (NHK cells); assay: Clonal growth assay of normal human keratinocytes in serum-free chemically defined medium; assay type: cell-based; details: for effect on clonal growth in high (3×) levels of the six key amino acids: 3× amino acids; for clonal growth of NHK relative to control medium supplemented with IGF-1 and EGF: additive in combination with IGF-1 (5 ng/mL), no EGF, 10 days after plating, diBcAMP 0.1 mM, LiCl 10 mM, PGE1 10 μg/ml; for replacement of protein growth factor requirement for clonal growth of NHK: serum-free medium, 10 days clonal growth; for clonal growth of NHK relative to culture medium supplemented with EGF plus IGF-1: 10 days
Method: The methods for isolating and culturing primary and secondary-passaged normal human neonatal normal human keratinocyte (NHK cells) were those previously employed (Wille et al., 1984). For the purpose of the present invention, secondary serially-passaged cultures were plated at 500 cells/cm in a novel serum-free basal media previously disclosed (Wille J. J., U.S. Pat. No. 5,586,307). This basal nutrient defined culture medium was supplemented either singly with the following additives: diBCAMP (1×10−4 M), LiCl (10 mM), and PGE1 ([…]). All dishes were fixed ten days later, stained with crystal violet stain (0.2%) and photographed.

keratinocyte cells = details: low calcium (0.03 mM) or calcium-free, serum-free medium; cited from earlier work

[Cl-].[Li+] [Li+ ions, Lithium chloride]
multiplication of human keratinocyte cells ([1]; 10 mM, serum-free chemically defined medium): stimulate
effect on clonal growth in low (1×) levels of the six key amino acids ([1]; 1× amino acids, with protein growth factors): growth-enhancing effects
effect on clonal growth in high (3×) levels of the six key amino acids ([1]; with protein growth factors, listed as lithium ions): lost
effect on clonal growth in high (3×) levels of the six key amino acids ([1]; with protein growth factors, listed as lithium ions (Li+)): no enhancement
clonal growth of NHK relative to control medium supplemented with IGF-1 and EGF [1]: significantly enhances
replacement of protein growth factor requirement for clonal growth of NHK [1]: can replace EGF
replacement of protein growth factor requirement for clonal growth of NHK ([1]; listed as Lithium ions): completely replaced EGF

CCCCC[C@H](O)/C=C/[C@H]1[C@H](O)CC(=O)[C@@H]1CCCCCCC(=O)O [PGE1, Prostaglandin E1]
clonal growth of NHK relative to control medium supplemented with IGF-1 and EGF [1]: significantly enhanced
clonal growth of NHK relative to culture medium supplemented with EGF plus IGF-1 ([1]; in combination with both EGF and IGF-1): significantly enhanced
clonal growth in elevated (3×) levels of the six key amino acids relative to lower (1×) levels ([1]; in the presence of insulin (5 μg/mL) and EGF (10 ng/mL)): significant enhancement
replacement of protein growth factor requirement for clonal growth of NHK [1]: can replace both EGF and IGF-1
clonal growth of NHK relative to culture medium supplemented with EGF plus IGF-1 ([1]; single addition to medium unsupplemented by any protein growth factors): significantly enhanced

[Sr+2] [Strontium ions (Sr 2+)]
concentration of maximal enhancement of cell viability and increase in cell number (keratinocyte cells): 1.0 to 2.0 mM

CCCC(=O)Nc1ncnc2c1ncn2[C@@H]1O[C@@H]2COP(=O)(O)O[C@H]2[C@H]1OC(=O)CCC [diBcAMP, dibutryl-3′-5′-adenosine monophosphate]
clonal growth of NHK relative to control medium supplemented with IGF-1 and EGF [1]: significantly enhanced
clonal growth of NHK relative to control medium supplemented with IGF-1 and EGF ([1]; listed as diBCAMP): does enhance
replacement of protein growth factor requirement for clonal growth of NHK [1]: can replace EGF
